Results as given in US20190337932A1, “PROCESS FOR PREPARATION OF DACLATASVIR AND SALTS” (Gienmark Pharmaceuticals Limited, priority 2016, published 2019).
Structures can show the parent of a compound that is named as a salt. Values belong to the compound of their own block, whether it stands above or below them.

Tests used:
Assay type in all cases: physicochemical
[1] = Transformation kinetics: slurrying in water at 25 to 30° C. for 24 hours, XRPD
Procedure: The study was carried out by slurrying 1 g of daclatasvir dihydrochloride hydrate of the present invention and literature Form N-2 of daclatasvir dihydrochloride, in water at 25 to 30° C. for 24 hours. The solid samples were then characterized by XRPD.

[2] = Hygroscopicity at 25° C/60% and 40° C/75% relative humidity (description, water content by Karl Fischer); conditions: for hygroscopicity: conclusion of the study, Tables 4 and 5
Procedure: The study was carried out by subjecting 4 g of daclatasvir dihydrochloride hydrate of the present invention and literature Form N-2 of daclatasvir dihydrochloride to 25′C/60% relative humidity and 40′C/75% relative humidity. About 100 mg of sample was withdrawn each time at timely interval of 4, 12, 24 and 48 hours from the conditions is and tested for description and water content by Karl Fischer.

[3] = Solid state stability at accelerated stress conditions (40° C./75% relative humidity); conditions: 40° C./75% RH
Procedure: In one embodiment the present invention provides daclatasvir dihydrochloride hydrate, which has enhanced stability to heat and humidity. According to the present invention, the obtained daclatasvir dihydrochloride hydrate is subjected to accelerated stability at 40° C. and relative humidity (RH) 75%.
The solid state stability of the daclatasvir dihydrochloride hydrate was determined by storing approximately 3.0 g of the sample at accelerated stress conditions (40° C./75% relative humidity) for 15 days, 1 month, 3 months, 6 months. The samples were tested by XRPD and HPLC for final purity and degradation products.

[4] = Physical stability on storing/drying at 50° C., 70° C., 100° C. (XRPD, Karl-Fisher)
Procedure: The physical stability of the daclatasvir dihydrochloride hydrate, of the present invention was determined by storing approximately 3.0 g of the sample a) at 50° C. b) at 70° C. c) at 100° C. The samples were tested by XRPD and Karl-Fisher titrator after 15 hours and 72 hours.

[5] = Photostability, light of 4000 lux at 25° C. for 2 weeks
Procedure: This study was carried out in a photostability testing chamber by subjecting daclatasvir dihydrochloride hydrate of the present invention to irradiation with light of 4000 lux at 25° C. for 2 weeks and the samples were tested for XRPD and stability.

[6] = Dynamic vapor system sorption/desorption isotherms; conditions: 25° C., relative humidity of 40% to 90%
Procedure: Sorption/desorption isotherms were measured using the Dynamic vapor System. Measurement was carried out at 25° C. and Relative humidity of 40% to 90%.

[7] = listed as literature form N-2, dihydrochloride

Result (form by XRPD) ([1]; listed as Form-N2, dihydrochloride): Converted to crystalline daclatasvir | Moisture content by KF ([2]; 25° C./60% relative humidity, 4 hours, dihydrochloride): 2.45% | Moisture content by KF ([2]; 25° C./60% relative humidity, 12 hours, dihydrochloride): 2.47% | Moisture content by KF ([2]; 25° C./60% relative humidity, 24 hours, dihydrochloride): 2.44% | Moisture content by KF ([2]; 25° C./60% relative humidity, 48 hours, dihydrochloride): 2.47% | Moisture content by KF ([2]; 25° C./60% relative humidity, Initial, dihydrochloride): 2.12% | Moisture content by KF ([2]; 40° C./75% relative humidity, 4 hours, dihydrochloride): 2.52% | Moisture content by KF ([2]; 40° C./75% relative humidity, 12 hours, dihydrochloride): 2.54% | Moisture content by KF ([2]; 40° C./75% relative humidity, 24 hours, dihydrochloride): 2.65% | Moisture content by KF ([2]; 40° C./75% relative humidity, 48 hours, dihydrochloride): 2.77% | Moisture content by KF ([2]; 40° C./75% relative humidity, Initial, dihydrochloride): 2.12%
SMILES: COC(=O)N[C@H](C(=O)N1CCC[C@H]1c1ncc(-c2ccc(-c3ccc(-c4cnc([C@@H]5CCCN5C(=O)[C@@H](NC(=O)OC)C(C)C)[nH]4)cc3)cc2)[nH]1)C(C)C [daclatasvir dihydrochloride, reference compound]
Result (form by XRPD) [1, 7]: did not retain its form and was converted to the daclatasvir dihydrochloride hydrate of the present invention | hygroscopicity [2, 7]: more hygroscopic than the form of the present invention

HPLC Purity (%) ([3]; after 1 month): 99.9% | XRPD ([3]; after 1 month): Same as initial | HPLC Purity (%) ([3]; after 3 months): 99.89% | XRPD ([3]; after 3 months): Same as initial | HPLC Purity (%) ([3]; after 6 months): 99.88% | XRPD ([3]; after 6 months): Same as initial | HPLC Purity (%) ([3]; after 15 days): 99.9% | XRPD ([3]; after 15 days): Same as initial | chemical and physical stability ([3]; accelerated stability): chemically and physically very stable | degradation in HPLC ([3]; accelerated stability): no degradation | increase in the moisture content ([3]; accelerated stability): no substantial increase | XRPD pattern ([3]; accelerated stability, dihydrochloride hydrate): remains the same as initial | KF ([4]; Drying at 50° C. for 15 hours): 8.03% | KF ([4]; Drying at 50° C. for 72 hours): 8.12% | Key XRPD peaks after drying ([4]; Drying at 50° C., 70° C. (15 and 72 hours) and 100° C. (15 hours), one merged cell): There was no change in XRPD | KF ([4]; Drying at 70° C. for 15 hours): 8.03% | KF ([4]; Drying at 70° C. for 72 hours): 8.02% | KF ([4]; Drying at 100° C. for 15 hours): 8% | KF ([4]; Initial form): 7.99% | change in form ([4]; drying and humid conditions): no change in form | Description ([2]; 25° C./60% relative humidity, 4 hours): Creamish | Moisture content by KF ([2]; 25° C./60% relative humidity, 4 hours, dihydrochloride hydrate): 8.77% | Description ([2]; 25° C./60% relative humidity, 12 hours): Creamish | Moisture content by KF ([2]; 25° C./60% relative humidity, 12 hours, dihydrochloride hydrate): 8.86% | Description ([2]; 25° C./60% relative humidity, 24 hours): Creamish | Moisture content by KF ([2]; 25° C./60% relative humidity, 24 hours, dihydrochloride hydrate): 8.89% | Description ([2]; 25° C./60% relative humidity, 48 hours): Creamish | Moisture content by KF ([2]; 25° C./60% relative humidity, 48 hours, dihydrochloride hydrate): 8.91% | Description ([2]; 25° C./60% relative humidity, Initial): Creamish | Moisture content by KF ([2]; 25° C./60% relative humidity, Initial, dihydrochloride hydrate): 8.76% | Description ([2]; 40° C./75% relative humidity, 4 hours): Creamish | Moisture content by KF ([2]; 40° C./75% relative humidity, 4 hours, dihydrochloride hydrate): 8.76% | Description ([2]; 40° C./75% relative humidity, 12 hours): Creamish | Moisture content by KF ([2]; 40° C./75% relative humidity, 12 hours, dihydrochloride hydrate): 8.81% | Description ([2]; 40° C./75% relative humidity, 24 hours): Creamish | Moisture content by KF ([2]; 40° C./75% relative humidity, 24 hours, dihydrochloride hydrate): 8.86% | Description ([2]; 40° C./75% relative humidity, 48 hours): Creamish | Moisture content by KF ([2]; 40° C./75% relative humidity, 48 hours, dihydrochloride hydrate): 8.92% | Description ([2]; 40° C./75% relative humidity, Initial): Creamish | Moisture content by KF ([2]; 40° C./75% relative humidity, Initial, dihydrochloride hydrate): 8.76% | hygroscopicity ([2]; dihydrochloride hydrate): non-hygroscopic | XRPD pattern [5]: remains same as initial | degradation in HPLC [5]: no degradation | Adsorption desorption profile [6]: reversible
SMILES: COC(=O)N[C@H](C(=O)N1CCC[C@H]1c1ncc(-c2ccc(-c3ccc(-c4cnc([C@@H]5CCCN5C(=O)[C@@H](NC(=O)OC)C(C)C)[nH]4)cc3)cc2)[nH]1)C(C)C [daclatasvir dihydrochloride hydrate]
Result (form by XRPD) ([1]; dihydrochloride hydrate): No discernible form conversion or dissociation
